The source of these data is patent publication US4175081A, “5-Substituted thiadiazole ureas” (priority 1977, dated 1979).

The structures appear in SMILES notation.

Experiment [1] relates to Yellow foxtail grass (YF). Put plainly: Pre-emergence herbicide test. The class given is in vivo, Setaria glauca. To be noted: Setaria, 336 h, two weeks after treatment. The procedure, abridged: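 Visual rating of injury/control made two weeks after a pre-emergence spray of 8 or 4 lbs active per acre (38 gal/acre) onto pots seeded the previous day. Greenhouse watering by sub-irrigation only.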

Experiment [2] deals with Bean (BN). Put plainly: Pre-emergence herbicide test. The class given is in vivo, Phaseolus vulgaris var. Black Valentine. To be noted: Phaseolus vulgaris, 336 h, two weeks after treatment. The procedure, abridged:
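Visual injury/control ratings were taken two weeks post-spray on sub-irrigated Phaseolus vulgaris var. Black Valentine. Pots were sown a day before treatment. Pre-emergence spray delivered 8 lbs actual compound per acre (or 4 lbs/acre) at 38 gallons per acre.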

In a further experiment the test system is Johnson grass (JG). Put plainly: Post-emergence herbicide test. The class given is in vivo, Sorgum helepense. The following applies: Sorghum halepense, 336 h, two weeks after treatment. The procedure, abridged: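 Visual injury or control scores taken 2 weeks after a post-emergence spray of pot-grown plants. Application was 8 lbs/acre (or 4 lbs/acre) in 38 gal/acre. Plants were held in the greenhouse with sub-irrigation only.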

The subject of a further experiment is Barnyard grass (BG). The experiment is described as follows: Post-emergence herbicide test. In kind it is in vivo. To be noted: Echinochloa crus-galli, 336 h, two weeks after treatment. Summed up:
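Greenhouse pot-grown barnyard grass seedlings sprayed post-emergence at 8 lbs active compound per acre (some at 4 lbs/acre) in 38 gallons per acre, then sub-irrigated. Injury or control rated visually two weeks after treatment.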

The next experiment deals with Turnip (TP). The experiment is described as follows: Post-emergence herbicide test. In kind it is in vivo, Brassica sp. The following applies: Brassica rapa, post-emergence, 336 h, two weeks after treatment. The procedure, abridged:
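A greenhouse post-emergence herbicide test on turnip. Seeds were sown on the surface of potting soil in 3' plastic pots, lightly covered with screened soil and watered from below. Planting was timed so seedlings had 1 or 2 true leaves above the cotyledons at spraying, done in a hood with a fixed nozzle. Control or injury was scored by eye after two weeks.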

The subject of experiment [3] is Bean (BN). Put plainly: Post-emergence herbicide test. In kind it is in vivo, Phaseolus vulgaris var. Black Valentine. The following applies: Phaseolus vulgaris, post-emergence, 336 h, two weeks after treatment. Summed up:
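Bean seedlings (Phaseolus vulgaris var. Black Valentine) were grown in potting soil in 3' pots until the primary leaves expanded. They were then sprayed under a hood with a removable belt and fixed nozzle, using 50 ml formulations. Afterward they were returned to the greenhouse and watered only by sub-irrigation. Percent control was judged visually two weeks after treatment.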

Take `CNC(=O)Nc1nnc(C(F)(F)F)s1` [Example 1, 1-Methyl-3-[5-Trifluoromethyl-2-(1,3,4-Thiadiazolyl)] Urea]: the pest or weed control – broadly, the degree to which the test organism was suppressed or injured, in per cent – at 4483.4 g/ha came out at 80% in experiment [1] (4 lb/acre); 90% in the experiment with Bean (BN) [2] (4 lb/acre); 90% in the experiment on Johnson grass (JG) (4 lb/acre); 100% with Barnyard grass (BG) (4 lb/acre); 100% in the experiment on Turnip (TP) (4 lb/acre); 100% in the experiment on Bean (BN) [3] (4 lb/acre). Moreover, the pest or weed control at 8966.8 g/ha in experiment [1] (8 lb/acre) was 90%; in the experiment with Bean (BN) [2] (8 lb/acre), 90%; in the experiment on Johnson grass (JG) (8 lb/acre) it was 100%; in the experiment on Barnyard grass (BG) (8 lb/acre), 100%; in the experiment on Turnip (TP) (8 lb/acre), 100%; in the experiment on Bean (BN) [3] (8 lb/acre) it was 100%. The same compound returned a pest or weed control in the experiment with Johnson grass (JG) (2 lb/acre) of 90%. In addition, the pest or weed control at 2241.7 g/ha with Barnyard grass (BG) (2 lb/acre) stood at 70%; with Turnip (TP) (2 lb/acre) it was 80%; with Bean (BN) [3] (2 lb/acre), 100%.
